Values quoted from earlier work, collected in patent US12329853B2, “Compositions and methods for treating ocular diseases” (OCULAR THERAPEUTIX, INC., priority 2020, dated 2025).

Tests used:
[1] = organic solvents typically employed for fabrication of microspheres using solvent evaporation
FP prostanoid receptor = FP prostanoid receptor (Homo sapiens, UniProt P43088)
FP prostanoid receptor, sequence (P43088 whole entry): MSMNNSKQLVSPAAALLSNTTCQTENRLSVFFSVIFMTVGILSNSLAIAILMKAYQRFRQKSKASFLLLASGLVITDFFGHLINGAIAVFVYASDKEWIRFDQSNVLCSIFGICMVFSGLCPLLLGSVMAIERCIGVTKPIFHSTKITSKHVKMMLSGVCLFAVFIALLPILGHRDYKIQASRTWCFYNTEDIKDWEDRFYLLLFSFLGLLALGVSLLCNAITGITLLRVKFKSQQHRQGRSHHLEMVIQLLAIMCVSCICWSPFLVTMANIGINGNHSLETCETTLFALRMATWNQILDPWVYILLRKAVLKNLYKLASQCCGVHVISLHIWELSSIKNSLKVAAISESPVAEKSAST

| Compound | Solubility in organic solvents [1] | Selectivity for the FP prostanoid receptor compared to latanoprost (FP prostanoid receptor) | Potency compared to latanoprost (FP prostanoid receptor; FP prostanoid receptor) |
| --- | --- | --- | --- |
| CC(C)OC(=O)CCC/C=C\C[C@@H]1[C@@H](CC[C@@H](O)CCc2ccccc2)[C@H](O)C[C@@H]1O [Latanoprost] | readily soluble |  |  |
| O=C(O)CCC/C=C\C[C@@H]1[C@@H](/C=C/[C@@H](O)COc2cccc(C(F)(F)F)c2)[C@H](O)C[C@@H]1O [free acid of travoprost] |  | greater selectivity | higher potency |
